Data on two compounds can be found in patent US20250287955A1, “METHODS OF […] PLANT FROM INSECT PESTS” (NOVONESIS PLANT BIOSOLUTIONS A/S, priority 2018, published 2025).

Where two headings read alike, the source gives them in different places.

The test has as its system 3rd instar cabbage looper. Nature of the test: cabbage leaf disc dip bioassay, mortality of cabbage looper. It counts as in vivo. Here is the method:
An enzyme preparation, designated A, comprising an enzyme having lipase activity was diluted to 10% of the original concentration. 1 mL of the enzyme was added to 9 mL of phosphate buffered saline (PBS). The diluted enzyme was desalted using a desalting column from Sigma Aldrich. Each column having the capacity to desalt 2.5 mL of enzyme, 4 columns for the enzyme were used. Each column was equilibrated with 25 mL of PBS. 2.5 mL of sample was loaded into the column, the flow thru was discarded. 3.5 mL of PBS was added to elute the desalted enzyme. This flow thru was collected for use in the bioassay. 4.95 mL of the desalted enzyme was added to 99 mL PBS.
The chlorpyrifos insecticide (Sigma 45395) was prepared based on a stock solution of 10× (113 mg/L) using acetone. The insecticide was then diluted further using acetone to a 1:6 ratio.
Approximately 0.3 g of super absorbent granules were placed into 1.25 ounce cups and 6 mL of deionized water was added to hydrate the granules. Discs of green cabbage (2.8 cm) were cut with plastic tubing after the outer leaves had been removed. One disc was used for each individual insect. After cutting, leaf discs were rinsed in deionized water and spin dried in a small salad spinner to remove excess water.
Liquid treatments were poured into either 50 mL glass beakers for the insecticide or medium weigh boats for aqueous treatments and cabbage leaf discs were dipped in the treatment with disposable forceps, tilted to allow excess liquid to run off, and placed into cups with hydrated granules at an angle.
The cabbage leaf discs were dipped in either acetone (enzyme alone treatment) or chlorpyrifos at 18.83 mg/L of acetone. These were set to dry for 1 hr. The cabbage discs were then dipped either in phosphate buffer (chlorpyrifos alone treatments) or Enzyme A (enzyme alone or in combination with chlorpyrifos treatment), along with a 0.03% surfactant supplement.
After the cabbage discs had dried for 1 hr, a single 3rd instar cabbage looper was added to each individual cabbage disc in its cup and a paperboard lid was snapped into place. A total of 20 insects were evaluated for each treatment.
Experiment 2: This experiment was performed similar to Experiment 1, except the chemical insecticide was Clothianidin at 1:2, and the enzyme preparation, designated B, comprises an enzyme having glucosidase activity.
Experiment 3: This experiment was performed similar to Experiment 2, except the enzyme preparations, designated C and D, respectively, each comprises a different enzyme having protease activity.

In the case of `CCOP(=S)(OCC)Oc1nc(Cl)c(Cl)cc1Cl` [Chlorpyrifos, chlorpyrifos], the “LT50 (95% confidence intervals) in days” value (Experiment 1, estimated time to kill 50% of the insects, Probit analysis, chlorpyrifos 18.83 mg/L, Enzyme A 0.05%, 20 insects per treatment) is 11.11 (9.90-12.48) days. Further, the mortality at 18.83 µg/mL (Trichoplusia ni, foliar, 168 h, read-out: % Mortality (7DAT), Experiment 1, Abbott's corrected, 7 days after treatment, chlorpyrifos 18.83 mg/L, Enzyme A 0.05%) was 11%.
In the case of `CN/C(=N\[N+](=O)[O-])NCc1cnc(Cl)s1` [Clothianidin], the “LT50 (95% confidence intervals) in days” value (Experiment 2, Probit analysis, clothianidin 30 mg/L) is 19.37 (16.23-23.38) days. The “LT50 (95% confidence intervals)” value (Experiment 3, Probit analysis, clothianidin 30 mg/L) is listed as 12.34 days. The mortality reads like this: (Trichoplusia ni, foliar, 120 h, Experiment 3, Abbott's corrected, 5 days after treatment, clothianidin 30 mg/L, read-out: % Mortality (5DAT)) 15%; (Trichoplusia ni, foliar, 144 h, Experiment 3, Abbott's corrected, 6 days after treatment, clothianidin 30 mg/L, read-out: % Mortality (6DAT)) 20%; (Trichoplusia ni, foliar, 168 h, Experiment 3, Abbott's corrected, 7 days after treatment, clothianidin 30 mg/L, read-out: % Mortality (7DAT)) 30%; (Trichoplusia ni, foliar, 336 h, Experiment 3, Abbott's corrected, 14 days after treatment, clothianidin 30 mg/L, read-out: % Mortality (14DAT)) 45%; (Trichoplusia ni, foliar, Experiment 3, Abbott's corrected, 8-11 days after treatment, clothianidin 30 mg/L, read-out: % Mortality (8-11DAT)) 40%; (Trichoplusia ni, foliar, Experiment 3, Abbott's corrected, 12-13 days after treatment, clothianidin 30 mg/L, read-out: % Mortality (12-13DAT)) 45%. Further, the mortality at 30 µg/mL (Trichoplusia ni, foliar, 144 h, Experiment 2, Abbott's corrected, 6 days after treatment, clothianidin 30 mg/L, read-out: % Mortality (6DAT)) stood at 0%.
